Assay results as given in ChEMBL document CHEMBL5537187, “Discovery of N-(1-(6-Oxo-1,6-dihydropyrimidine)-pyrazole) Acetamide Derivatives as Novel Noncovalent DprE1 Inhibitors against Mycobacterium tuberculosis” (J Med Chem, 2024).
Active and inactive are the calls of the source. The calls are words filed in the database; no cut-off is given here.

Test system: Mycolicibacterium smegmatis
Test: Antimycobacterial activity against Mycobacterium smegmatis overexpressing Mtb DprE1 assessed as inhibition of bacterial growth by resazurin dye based analysis
Type: functional, organism-based

Compound: CO[C@H]1/C=C/O[C@@]2(C)Oc3c(C)c(O)c4c(O)c(c(/C=N/N5CCN(C)CC5)c(O)c4c3C2=O)NC(=O)/C(C)=C\C=C\[C@H](C)[C@H](O)[C@@H](C)[C@@H](O)[C@@H](C)[C@H](OC(C)=O)[C@@H]1C [RIFAMPIN]
- Activity: Active
